According to PubChem BioAssay AID248 (DTP/NCI, 2004):
Values joined by “and” are separate entries in the source; they are usually repeats but may differ in a detail not shown here. Identical values can stand only once. Toxic doses and inconclusive results are not listed. Cut-off read from the data, not from the text of the source: active = T/C of 150% or more; inactive = T/C below 125%.

Tested on: L1210 leukemia ip in BDF1 mice, survival T/C
Experiment: NCI In Vivo Anticancer Drug Screen. Data for tumor model L1210 Leukemia (intraperitoneal) in B6D2F1 (BDF1) mice
Settings: endpoint: mean survival time, higher = longer survival
Summary of the method: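 Tumor cells were implanted, animals were treated, and survival was followed. The result divides the treated measurement by the vehicle-control measurement.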

[1] = dose: 50.0 mg/kg/injection, schedule: Q01DX001 (ip), vehicle: saline
[2] = dose: 100.0 mg/kg/injection, schedule: Q01DX001 (ip), vehicle: saline
[3] = dose: 200.0 mg/kg/injection, schedule: Q01DX001 (ip), vehicle: saline
[4] = dose: 400.0 mg/kg/injection, schedule: Q01DX001 (ip), vehicle: saline
[5] = dose: 100.0 mg/kg/injection, schedule: Q04DX003 (ip), vehicle: saline with Tween-80
[6] = dose: 200.0 mg/kg/injection, schedule: Q04DX003 (ip), vehicle: saline with Tween-80
[7] = dose: 100.0 mg/kg/injection, schedule: Q04DX002 (ip), vehicle: saline
[8] = dose: 200.0 mg/kg/injection, schedule: Q04DX002 (ip), vehicle: saline
[9] = dose: 400.0 mg/kg/injection, schedule: Q04DX002 (ip), vehicle: saline
[10] = dose: 50.0 mg/kg/injection, schedule: Q01DX009 (ip), vehicle: Klucel (hydroxypropylcellulose) (HPC)
[11] = dose: 100.0 mg/kg/injection, schedule: Q01DX009 (ip), vehicle: Klucel (hydroxypropylcellulose) (HPC)
[12] = dose: 200.0 mg/kg/injection, schedule: Q01DX009 (ip), vehicle: Klucel (hydroxypropylcellulose) (HPC)
[13] = dose: 200.0 mg/kg/injection, schedule: Q01DX001 (ip), vehicle: carboxymethylcellulose (CMC)
[14] = dose: 400.0 mg/kg/injection, schedule: Q01DX001 (ip), vehicle: carboxymethylcellulose (CMC)
[15] = dose: 100.0 mg/kg/injection, schedule: Q04DX003 (ip), vehicle: saline
[16] = dose: 200.0 mg/kg/injection, schedule: Q04DX003 (ip), vehicle: saline
[17] = dose: 25.0 mg/kg/injection, schedule: Q01DX009 (ip), vehicle: Klucel (hydroxypropylcellulose) (HPC)
[18] = dose: 25.0 mg/kg/injection, schedule: Q01DX001 (ip), vehicle: carboxymethylcellulose (CMC)
[19] = dose: 50.0 mg/kg/injection, schedule: Q01DX001 (ip), vehicle: carboxymethylcellulose (CMC)
[20] = dose: 100.0 mg/kg/injection, schedule: Q01DX001 (ip), vehicle: carboxymethylcellulose (CMC)

Measured: T/C

OCC(O)C(O)C(O)C(c1ccccc1)c1ccccc1 (configuration not stated)
inactive: [1] 107 % of control | [2] 98 % of control | [3] 96 % of control | [4] 98 % of control

O=C1CCC(CCl)O1 (configuration not stated)
inactive: dose: 75.0 mg/kg/injection, schedule: Q01DX009 (ip), vehicle: other 100 % of control | dose: 100.0 mg/kg/injection, schedule: Q04DX002 (ip), vehicle: other 93 % of control | dose: 150.0 mg/kg/injection, schedule: Q01DX009 (ip), vehicle: other 104 % of control | dose: 200.0 mg/kg/injection, schedule: Q04DX002 (ip), vehicle: other 93 % of control | dose: 300.0 mg/kg/injection, schedule: Q01DX009 (ip), vehicle: other 96 % of control | dose: 400.0 mg/kg/injection, schedule: Q04DX002 (ip), vehicle: other 110 % of control

O=c1cc(Cc2ccccc2)[nH]c(=S)[nH]1
inactive: dose: 100.0 mg/kg/injection, schedule: Q01DX009 (ip), vehicle: saline with Tween-80 94 % of control | [5] 99 % of control | dose: 200.0 mg/kg/injection, schedule: Q01DX009 (ip), vehicle: saline with Tween-80 93 % of control | [6] 97 % of control | dose: 400.0 mg/kg/injection, schedule: Q01DX009 (ip), vehicle: saline with Tween-80 96 % of control | dose: 400.0 mg/kg/injection, schedule: Q04DX003 (ip), vehicle: saline with Tween-80 100 % of control

CC(=O)OC1CC2(CO2)C2CC3OC3(C)C2C2OC(=O)C(C)C12 (configuration not stated)
inactive: dose: 12.5 mg/kg/injection, schedule: Q04DX002 (ip), vehicle: saline 95 % of control | dose: 25.0 mg/kg/injection, schedule: Q04DX002 (ip), vehicle: saline 92 % of control | dose: 50.0 mg/kg/injection, schedule: Q04DX002 (ip), vehicle: saline 110 % of control | dose: 75.0 mg/kg/injection, schedule: Q04DX002 (ip), vehicle: saline 97 % of control | [7] 95 % of control | dose: 115.0 mg/kg/injection, schedule: Q04DX002 (ip), vehicle: saline 104 % of control | dose: 170.0 mg/kg/injection, schedule: Q04DX002 (ip), vehicle: saline 104 % of control | [8] 110 % of control | [9] 95 % of control

ClC1=C(Cl)C2(Cl)C3COCC3C1(Cl)C2(Cl)Cl (configuration not stated)
inactive: [10] 105 % of control | [11] 90 % of control | dose: 100.0 mg/kg/injection, schedule: Q04DX003 (ip), vehicle: Klucel (hydroxypropylcellulose) (HPC) 97 % of control | [12] 90 % of control | dose: 200.0 mg/kg/injection, schedule: Q04DX003 (ip), vehicle: Klucel (hydroxypropylcellulose) (HPC) 95 % of control

Nc1ncc(C=Nc2ccc(C(=O)O)cc2)c(N)n1
inactive: [13] 94 % of control | [14] 102 % of control

O=C1C=C(c2ccccc2)C(Cl)(c2ccccc2)C1 (configuration not stated)
inactive: dose: 100.0 mg/kg/injection, schedule: Q01DX001 (ip), vehicle: saline with Tween-80 104 % of control | dose: 200.0 mg/kg/injection, schedule: Q01DX001 (ip), vehicle: saline with Tween-80 96 % of control | dose: 400.0 mg/kg/injection, schedule: Q01DX001 (ip), vehicle: saline with Tween-80 89 % of control

C[n+]1ccccc1C=O
inactive: [1] 100 % of control | dose: 50.0 mg/kg/injection, schedule: Q01DX009 (ip), vehicle: saline 102 % of control and 103 % of control | dose: 50.0 mg/kg/injection, schedule: Q04DX003 (ip), vehicle: saline 98 % of control | [2] 100 % of control | dose: 100.0 mg/kg/injection, schedule: Q01DX009 (ip), vehicle: saline 104 % of control and 113 % of control | [7] 97 % of control and 105 % of control | [15] 88 % of control | [3] 103 % of control | dose: 200.0 mg/kg/injection, schedule: Q01DX009 (ip), vehicle: saline 102 % of control and 109 % of control | [8] 102 % of control and 105 % of control | [16] 107 % of control | [9] 101 % of control

CCCCCC(CN(C)C)C(=O)/C=C/c1c(Cl)cccc1Cl (configuration not stated)
inactive: [17] 106 % of control

O=C1CSC(c2ccccc2)N1c1ccccc1 (configuration not stated)
inactive: [1] 106 % of control | [2] 118 % of control | [3] 108 % of control | [4] 100 % of control

O=C(O)CCC(=O)Nc1ccc(F)cc1
inactive: [11] 103 % of control | [12] 93 % of control | dose: 400.0 mg/kg/injection, schedule: Q01DX009 (ip), vehicle: Klucel (hydroxypropylcellulose) (HPC) 93 % of control

Nc1nc(N)c(N=Nc2ccc([As](=O)(O)O)c(O)c2)c(=O)[nH]1
inactive: [2] 91 % of control | [3] 93 % of control | [4] 93 % of control

c1ccc(N=C(Nc2ccccc2)Nc2ccccc2)cc1
inactive: [17] 94 % of control | dose: 25.0 mg/kg/injection, schedule: Q04DX002 (ip), vehicle: Klucel (hydroxypropylcellulose) (HPC) 114 % of control | [10] 94 % of control | dose: 50.0 mg/kg/injection, schedule: Q04DX002 (ip), vehicle: Klucel (hydroxypropylcellulose) (HPC) 114 % of control | [11] 90 % of control | dose: 100.0 mg/kg/injection, schedule: Q04DX002 (ip), vehicle: Klucel (hydroxypropylcellulose) (HPC) 96 % of control and 98 % of control

O=C1C(Cl)=C(N/N=c2/[nH][nH]/c(=N/NC3=C(Cl)C(=O)c4ccccc4C3=O)c3ccccc23)C(=O)c2ccccc21
inactive: [18] 104 % of control | [19] 101 % of control

Brc1ccc(-c2csc(Nc3nc(-c4ccc(Br)cc4)cs3)n2)cc1
inactive: [20] 102 % of control | [13] 98 % of control | dose: 250.0 mg/kg/injection, schedule: Q01DX015 (ip), vehicle: carboxymethylcellulose (CMC) 100 % of control | [14] 107 % of control | dose: 500.0 mg/kg/injection, schedule: Q01DX015 (ip), vehicle: carboxymethylcellulose (CMC) 100 % of control | dose: 750.0 mg/kg/injection, schedule: Q01DX015 (ip), vehicle: carboxymethylcellulose (CMC) 113 % of control | dose: 1000.0 mg/kg/injection, schedule: Q01DX015 (ip), vehicle: carboxymethylcellulose (CMC) 100 % of control

CCNC(=O)NCC
inactive: [1] 109 % of control | [2] 101 % of control | [3] 103 % of control | [4] 97 % of control

CCCCCCCCCC(C)CCCCCC (configuration not stated)
inactive: dose: 75.0 mg/kg/injection, schedule: Q01DX001 (ip), vehicle: saline with Tween-80 100 % of control | dose: 150.0 mg/kg/injection, schedule: Q01DX001 (ip), vehicle: saline with Tween-80 116 % of control | dose: 300.0 mg/kg/injection, schedule: Q01DX001 (ip), vehicle: saline with Tween-80 92 % of control

COc1ccc(CCN(C)C(C)C2C3CC4CC(C3)CC2C4)cc1OC (configuration not stated)
inactive: [15] 101 % of control | [16] 94 % of control

Cc1csc2nccc(Cl)c12
inactive: dose: 50.0 mg/kg/injection, schedule: Q04DX002 (ip), vehicle: saline with Tween-80 98 % of control | dose: 100.0 mg/kg/injection, schedule: Q04DX002 (ip), vehicle: saline with Tween-80 91 % of control

NC(=O)c1ccc(N)nc1
inactive: dose: 22.0 mg/kg/injection, schedule: Q01DX001 (ip), vehicle: carboxymethylcellulose (CMC) 104 % of control and 106 % of control | [18] 106 % of control | dose: 33.0 mg/kg/injection, schedule: Q01DX001 (ip), vehicle: carboxymethylcellulose (CMC) 109 % of control and 114 % of control | [19] 111 % of control and 112 % of control | dose: 75.0 mg/kg/injection, schedule: Q01DX001 (ip), vehicle: carboxymethylcellulose (CMC) 109 % of control and 90 % of control | [20] 95 % of control

O=C1OC(c2ccccc2)=N/C1=C\c1ccc2c(c1)OCO2
inactive: [20] 95 % of control | [13] 98 % of control

CCOC(=O)N1C2c3ccccc3C3C(C21)N3C(=O)OCC (configuration not stated)
inactive: [2] 105 % of control | [3] 102 % of control | [4] 108 % of control

CCCCCCP(=O)(CCCCCC)C1CCCC1
inactive: [5] 91 % of control | [6] 92 % of control
